# Assay: Autoradiogram comparison of rat brain distribution of radioactivity after intravenous injection
# Assay type: in vivo, Sprague-Dawley male rat
# Conditions: autoradiograms at 2 and 15 minutes after injection, statement concerns the second (15 minute) autoradiogram
# From the text: • Figure 1 is an autoradiogram of rat brain distribution of radioactivity two (2) minutes after intravenous injection with a radioactive compound of the prior art. • Figure 2 is an autoradiogram of rat brain distribution of radioactivity fifteen (15) minutes after intravenous injection with a radioactive compound of the prior art. • Figure 3 is an autoradiogram of rat brain distribution of radioactivity two (2) minutes after intravenous injection with a radioactive compound of the invention. • Figure 4 is an autoradiogram of rat brain distribution of radioactivity fifteen (15) minutes after intravenous injection with a radioactive compound of the invention.
# Autoradiograms were made of Sprague-Dawley male rat brains of animals that were intravenously injected with 6-[N,N-diethylamino]methyl-3,3,10,10-tetramethyl-1,2-dithia-5,8-diazacylcodecane technetium-99m complex of the invention and 10,10,13,13-tetramethyl-11,12-dithia-8,15-diazaspiro-[5.9)pentadecane-technetium-99m complex of the prior art. The autoradiograms were taken at 2 and 15 minute intervals after injection.
row,definition of the autoradiogram of rat brain,Structure (SMILES)
1,sharp definition obtained and retained,"CCN(CC)CC1CNCC(C)(C)SSC(C)(C)CN1.[99Tc] (centres unmarked) [6-[N,N-diethylamino]methyl-3,3,10,10-tetramethyl-1,2-dithia-5,8-diazacylcodecane technetium-99m complex]"
2,lack of clear definition,"CC1(C)CNCC2(CCCCC2)NCC(C)(C)SS1.[99Tc] [10,10,13,13-tetramethyl-11,12-dithia-8,15-diaza spiro [5.9] pentadecane-technetium-99m complex]"

# Source: patent EP0200211A1, “Diagnostic radiopharmaceutical compounds” (THE RESEARCH FOUNDATION OF STATE UNIVERSITY OF NEW YORK, priority 1985, dated 1986)
